From US7923440B2, “Method of treating or preventing immune mediated disorders and pharmaceutical formulation for use therein” (Pantarhei Bioscience B.V., priority 2002, dated 2011)

Legend:
[1] = system: male DBA/1 mice with collagen induced arthritis (CIA); test: Collagen induced arthritis (CIA) in male DBA/1 mice, oral treatment; type: in vivo, mouse; conditions: for average day of disease onset (arthritis): vehicle 25.4±0.64
Description: The ability of estetrol to alleviate the severity of immune mediated disorders and its possible side-effects were evaluated and compared with dexamethasone in mice developing collagen induced arthritis (CIA), which is another experimental system of autoimmune and chronic inflammatory disease, representing human arthritic diseases, particularly rheumatoid arthritis (RA).
Arthritis was induced in male DBA/1 mice using a two-step immunization protocol (Joosten et al., “Dual role of IL-12 in early and late stages of murine collagen type II arthritis”. J Immunol 1997; 159:4094-4102; Joosten et al., “IL-1β blockade prevents cartilage and bone destruction in murine type II collagen-induced arthritis, whereas TNFα blockade only ameliorates joint inflammation”. J Immunol 1999; 163:5049-55). This strain is highly susceptible to CIA induced with bovine type II collagen. On day 0, mice were immunized with bovine type II collagen (100 μg) emulsified in Freund's complete adjuvant (four subcutaneous injections in the back). On day 21, mice were boosted with an i.p. injection of 100 μg collagen type II diluted in PBS.
The effect of oral treatment with estetrol on collagen-induced arthritis was studied in a 6-week study design. From day 22 until the end of the study (day 42), the animals were treated once daily with vehicle (hydroxypropyl-beta-cyclodextrin in a 20% wt/vol solution in water) serving as negative control or four different dosages of estetrol (3 mg/kg, 1 mg/kg, 0.3 mg/kg and 0.1 mg/kg). Dexamethasone (1 mg/kg), was chosen as a positive control because it is a well studied corticosteroid that reduces swelling and inflammation and is used in a variety of disorders such as skin diseases (psoriasis, hives), allergic conditions, breathing problems, cancer, blood disorders (anemia), digestive problems, eye disorders and for the treatment of arthritis. Although effective as an anti-inflammatory agent, dexamethasone is also known to induce a number of side effects, which amongst others include in humans the induction of osteoporosis, reduced adrenal function, dizziness, nausea, indigestion, increased appetite, weight gain due to enhanced water retention, weakness and/or sleep disturbances. In addition, systemic dexamethasone treatment in rodents results in strong catabolic effects that can be easily observed as weight loss (Orzechowski et al. 2002, “Rats with a glucocorticoid-induced catabolic state show symptoms of oxidative stress and spleen atrophy: the effects of age and recovery”. J Vet Med A Physiol Pathol Clin Med; 49:256-63).
All groups used in the study consisted of 13 mice. During the study animals were weighed and monitored for clinical signs of arthritis. Scoring of disease severity (clinical arthritis score) was performed according to scoring system described by Joosten et al. 1997 (J. Immunol., 159:4094-4102) and Joosten et al. 1999 (J. Immunol., 163:5049-55).
Basic statistical analyses were performed as follows: The significance of differences between all treatment groups in the main clinical outcome parameters was tested using analysis of variance (ANOVA). Each significant ANOVA was followed by post hoc Tukey tests to determine the significance of the difference between each treatment group and the control group. Furthermore, linear regression analysis was used to study the dose-dependency of the effects of treatment with estetrol. All statistical analysis were performed using statistical software program SPSS 10.0 for Windows (SPSS Inc., Chicago, Ill., USA).

[2] = biological target: T1, human ERα (Homo sapiens, UniProt P03372); test: Competitive steroid binding assay, ERα; conditions: relative preference for binding to ERα protein, from Ki values
T1 sequence (P03372 1-595): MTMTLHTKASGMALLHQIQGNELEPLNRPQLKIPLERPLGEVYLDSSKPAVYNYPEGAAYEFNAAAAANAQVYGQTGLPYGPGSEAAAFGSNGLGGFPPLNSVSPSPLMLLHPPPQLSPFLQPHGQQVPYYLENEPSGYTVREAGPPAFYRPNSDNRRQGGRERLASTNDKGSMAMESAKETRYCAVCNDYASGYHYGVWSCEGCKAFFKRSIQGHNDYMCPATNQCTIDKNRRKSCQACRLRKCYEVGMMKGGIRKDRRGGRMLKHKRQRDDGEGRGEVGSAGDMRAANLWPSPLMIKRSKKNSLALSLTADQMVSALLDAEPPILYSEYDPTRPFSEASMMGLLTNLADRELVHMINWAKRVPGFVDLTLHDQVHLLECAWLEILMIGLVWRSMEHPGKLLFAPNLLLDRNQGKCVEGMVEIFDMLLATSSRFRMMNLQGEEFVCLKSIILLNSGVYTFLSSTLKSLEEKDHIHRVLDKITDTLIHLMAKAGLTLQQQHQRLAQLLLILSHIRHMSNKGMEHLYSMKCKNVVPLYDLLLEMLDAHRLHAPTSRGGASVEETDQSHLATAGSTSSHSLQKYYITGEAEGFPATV

[3] = system: nonpregnant ewes; conditions: intravenously administered, Levine et al. 1984; cited from earlier work
[4] = system: B10.PL mice with experimental autoimmune encephalomyelitis (EAE); test: MBP induced EAE in B10.PL mice; type: in vivo, mouse
[5] = ovariectomized female B10.PL mice, sc and oral 0.1-3.0 mg/kg/day, 40 days

## C[C@]12CC[C@@H]3c4ccc(O)cc4CC[C@H]3[C@@H]1[C@@H](O)[C@@H](O)[C@@H]2O [E4, 1,3,5 (10)-estratrien-3,15α,16α,17β-tetrol]
[1]; oral 0.1 mg/kg
  average day of disease onset (arthritis): 25.8 days
[1]; oral 0.3 mg/kg
  average day of disease onset (arthritis): 26.0 days
[1]; oral 1.0 mg and 3.0 mg/kg groups
  increase in disease incidence versus vehicle: clearly delayed
[1]; oral 1.0 mg/kg
  average day of disease onset (arthritis): 28.2 days
[1]; oral 3.0 mg/kg, day 28
  body weight, % of initial weight (day 21): 99.3%
[1]; oral 3.0 mg/kg, day 35
  body weight, % of initial weight (day 21): 96.7%
[1]; oral 3.0 mg/kg, day 42
  body weight, % of initial weight (day 21): 97.9%
[1]; oral 3.0 mg/kg
  average day of disease onset (arthritis): 30.7 days
[1]; oral 0.1-3 mg/kg, day 21 to 42
  average cumulative arthritis score: dose-dependently reduced and significantly different as compared to vehicle-treated animals
[1]; oral 0.1-3 mg/kg, day 22-42
  development of macroscopical arthritis score: dose-dependently reduced
[1]; oral, lower three doses (0.1, 0.3 and 1.0 mg/kg)
  weight loss: comparable to the negative and positive control animal groups
[2]
  Relative ERα/ERβ preference: 400%
[3]
  potency in uterine vasodilation relative to estriol and 17β-estradiol: 15 to 30 times less potent
[4]; non-castrated female and male B10.PL mice, daily sc and/or oral
  symptoms and severity of EAE: dose-dependently alleviate symptoms and severity of EAE
[4]; [5]
  number of afflicted animals and/or severity of EAE symptoms: dose-dependently reduced
  onset of EAE disease symptoms: dose-dependent effects in delaying the onset of EAE disease symptoms
